Assay results published in ChEMBL document CHEMBL1201862, “PubChem BioAssay data set” (2004).
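Results reflect a 48-hour exposure of cells in 96-well plates to compound at five concentrations. The concentration for 50% growth inhibition is given as GI50.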 Calls of active or inactive are those of the source. Cut-off read from the data, not from the text of the source: active = GI50 up to about 1.1 µM and inactive = higher.

What was measured:
Assay in all cases: NCI anticancer screen, dose series, 48 h
[1] = tested on: PC-3
[2] = tested on: SK-MEL-5
[3] = tested on: OVCAR-4
[4] = tested on: KM12
[5] = tested on: RPMI-8226
[6] = tested on: HOP-92
[7] = tested on: MOLT-4
[8] = tested on: RXF 393
[9] = tested on: NCI-H460
[10] = tested on: HCT-15
[11] = tested on: LOX IMVI
[12] = tested on: NCI-H226
[13] = tested on: NCI-H23
[14] = tested on: K562
[15] = tested on: SNB-75
[16] = tested on: A498
[17] = tested on: NCI-H522
[18] = tested on: SK-OV-3
[19] = tested on: DU-145
[20] = tested on: Malme-3M

Measured: GI50

Cc1cccc(-c2cc(O)c3c(C)cc(C)nc3n2)c1
active: [2] 1.05 µM | [4] 0.745 µM | [14] 0.585 µM | [17] 0.658 µM
inactive: [1] 2.43 µM | [3] 4.38 µM | [5] 4.07 µM | [6] 35.4 µM | [7] 5.06 µM | [8] 3.41 µM | [9] 2.95 µM | [11] 4.82 µM | [12] 3.59 µM | [13] 3.65 µM | [15] 1.99 µM | [16] 5.71 µM | [18] 2.24 µM | [19] 4.32 µM | [20] 2.31 µM
1.32 µM: [10]

COc1ccc(N(CN2C(=O)CCC2OC)C(C)=O)cc1 (stereo not given)
> 100 µM: [10]
inactive: [1] > 100 µM | [2] > 100 µM | [3] > 100 µM | [4] > 100 µM | [5] > 100 µM | [6] > 100 µM | [7] > 100 µM | [8] > 100 µM | [9] > 100 µM | [11] > 100 µM | [12] > 100 µM | [13] > 100 µM | [14] > 100 µM | [15] > 100 µM | [16] > 100 µM | [17] > 100 µM | [18] > 100 µM | [19] > 100 µM | [20] > 100 µM

CC(=O)CC1(O)C(=O)c2c(Br)sc(Br)c2C1=O
20.4 µM: [10]
inactive: [1] 20.6 µM | [2] 18.4 µM | [3] 18.6 µM | [4] 34.3 µM | [5] 31.3 µM | [6] 18.8 µM | [7] 32.4 µM | [8] 24.7 µM | [9] 45.1 µM | [11] 17.7 µM | [12] 65.6 µM | [13] 19.5 µM | [14] 32.8 µM | [15] 59.7 µM | [16] > 100 µM | [17] 18.4 µM | [18] 36.8 µM | [19] 42.8 µM | [20] 18.1 µM

O=C(c1cc2ccccc2[nH]1)N1C2CCC1CN(CCOC(c1ccc(F)cc1)c1ccc(F)cc1)CC2 (stereo not given)
inactive: [1] 2.79 µM | [2] 5.77 µM | [3] > 100 µM | [4] 60.3 µM | [5] 9.2 µM | [6] > 100 µM | [7] 4.91 µM | [8] 3.97 µM | [9] 4.48 µM | [11] 9.48 µM | [12] 6.9 µM | [13] 40.1 µM | [14] 5.15 µM | [15] > 100 µM | [16] > 100 µM | [17] 18.1 µM | [18] > 100 µM | [19] > 100 µM | [20] > 100 µM
3.24 µM: [10]

COC(=O)c1sc2ncc3c(c2c1N)CC(C)CC3 (stereo not given)
> 100 µM: [10]
inactive: [1] > 100 µM | [2] > 100 µM | [3] > 100 µM | [4] > 100 µM | [5] > 100 µM | [6] > 100 µM | [7] > 100 µM | [8] 70.6 µM | [9] > 100 µM | [11] 71.3 µM | [12] > 100 µM | [13] > 100 µM | [14] > 100 µM | [15] 41.4 µM | [16] > 100 µM | [17] > 100 µM | [18] > 100 µM | [19] > 100 µM | [20] > 100 µM

COc1cccc2cc(C(=O)Nc3ccccc3)c(=N)oc12
inactive: [1] > 100 µM | [2] > 81.3 µM | [3] > 100 µM | [4] > 29.6 µM | [5] > 100 µM | [6] 22.2 µM | [7] > 100 µM | [8] > 100 µM | [9] > 100 µM | [11] > 100 µM | [12] > 100 µM | [13] > 69.2 µM | [14] > 100 µM | [15] 16.7 µM | [16] > 100 µM | [17] > 28.2 µM | [18] > 64 µM | [19] > 100 µM | [20] > 100 µM
> 100 µM: [10]

C/C(=N/NC(=S)Nc1ccc(C)cc1)c1ccccn1
inactive: [3] 1.47 µM | [15] 1.26 µM | [16] 2.51 µM
active: [1] < 0.0153 µM | [2] 0.12 µM | [4] 0.122 µM | [5] < 0.0156 µM | [6] 0.719 µM | [7] < 0.0122 µM | [8] 0.78 µM | [9] 0.263 µM | [11] 0.0162 µM | [12] 0.0908 µM | [13] < 0.0185 µM | [14] < 0.0127 µM | [17] 0.12 µM | [18] 0.0363 µM | [19] 0.794 µM | [20] 0.505 µM
0.0221 µM: [10]

COc1ccc(NC(C)=O)cc1N1C(=O)/C(=C\c2cccc(Oc3ccccc3)c2)S(=O)(=O)C1c1ccccc1 (stereo not given)
inactive: [1] 36.6 µM | [2] 35.3 µM | [3] 16.1 µM | [4] 59.2 µM | [5] 22.3 µM | [6] 25 µM | [7] 16.9 µM | [8] 54.8 µM | [9] 74.1 µM | [11] 26.9 µM | [12] > 100 µM | [13] 60.3 µM | [14] 22.8 µM | [15] 19 µM | [16] > 100 µM | [17] 41.1 µM | [18] > 100 µM | [19] 39 µM | [20] 70.1 µM
39 µM: [10]

CC(C)C1CC(CO)(CNc2nc(N)nc(Cl)c2C=O)C1 (stereo not given)
active: [17] 0.604 µM
4.43 µM: [10]
inactive: [1] 2.1 µM | [2] 6.89 µM | [3] 4.81 µM | [4] 7.35 µM | [5] 11 µM | [6] 2.28 µM | [7] 2.15 µM | [8] 7.93 µM | [9] 8.22 µM | [11] 2.04 µM | [12] 8.95 µM | [13] 2.22 µM | [14] 2.56 µM | [15] 7.87 µM | [16] 15.1 µM | [18] 6.79 µM | [19] 14.6 µM | [20] 11.1 µM

Cc1nnc(N2C(=O)C(=Cc3ccc(Cl)cc3)N=C2c2ccc(Cl)cc2)nc1/C=C\c1ccc(N(C)C)cc1
> 100 µM: [10]
inactive: [1] > 100 µM | [2] > 100 µM | [3] > 100 µM | [4] > 100 µM | [5] 72.3 µM | [6] > 100 µM | [7] > 100 µM | [8] > 100 µM | [9] > 100 µM | [11] > 100 µM | [12] > 100 µM | [13] > 100 µM | [14] 73.3 µM | [15] > 100 µM | [16] > 100 µM | [17] > 100 µM | [18] > 100 µM | [19] > 100 µM | [20] > 100 µM

C/C(=C\[C@H]1C[C@@H]([C@@H]2CC[C@]34C[C@]23C=C[C@@H]2[C@@]3(C)CC=C5C[C@@H](c6ccccc6)OC[C@]5(C)[C@@H]3C[C@@H](O)[C@]24C)C(=O)O1)CO [DICHAPETALIN A]
inactive: [1] 2.64 µM | [3] 3.03 µM | [4] 2.45 µM | [6] 1.95 µM | [7] 1.59 µM | [8] 77.8 µM | [11] 1.52 µM | [12] 14.9 µM | [13] 1.19 µM | [15] 3.55 µM | [17] 2.88 µM | [18] > 36.8 µM | [19] 10.2 µM | [20] 3.56 µM
4.38 µM: [10]
active: [2] 0.286 µM | [5] 0.624 µM | [9] 0.721 µM | [14] 0.553 µM | [16] 0.437 µM
